{
  "source": "PubChem BioAssay AID2060906",
  "about": "(Molecular Pharmacology Branch, DTP, NCI, 2025);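 also: spheroids exposed to compounds for seven days before readout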;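 as to viability, T/C: luminescence viability expressed relative to DMSO vehicle wells set as 100%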",
  "tested_on": "485176-168-R4-J1-PDC complex spheroid growth",
  "test": "Anticancer human tumor 485176-168-R4-J1-PDC patient-derived pancreatic adenocarcinoma cell line growth inhibition [RAS]",
  "settings": "for IC50: curve of first compound; for viability, T/C: stronger effect = lower value",
  "method_in_brief": "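Agents were tested in combination matrices in half-log decrements from a top concentration at or near clinical Cmax (10 microM if undetermined). Targets were multi-cell spheroids of tumour lines plus HUVEC and MSC stromal cells.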",
  "data": [
    {"smiles": "CCc1c2c(nc3ccc(O)cc13)-c1cc3c(c(=O)n1C2)COC(=O)[C@]3(O)CC", "note": "+ CCn1c(-c2cccnc2C(C)OC)c2c3cc(ccc31)N1CCOC(CC(NC(=O)C(C(C)C)N(C)C(=O)C3(F)CCN(C(=O)C#CC(C)(C)N(C)C)CC3)C(=O)N3CCCC(N3)C(=O)OCC(C)(C)C2)C1", "values": [
      {"measurement": "IC50", "setting": "second compound 0.000949 µM", "result": 12.7, "unit": "nM"},
      {"measurement": "IC50", "setting": "second compound 0.003 µM", "result": 8.73, "unit": "nM"},
      {"measurement": "IC50", "setting": "second compound 0.00949 µM", "result": 15, "unit": "nM"},
      {"measurement": "IC50", "setting": "second compound 0.03 µM", "result": 12.5, "unit": "nM"},
      {"measurement": "IC50", "setting": "second compound 0.0949 µM", "result": 6.74, "unit": "nM"},
      {"measurement": "IC50", "setting": "second compound 0.3 µM", "result": 7.31, "unit": "nM"},
      {"measurement": "viability, T/C", "setting": "second compound 0.000949 µM, first compound 0.000949 µM", "result": 89, "unit": "%"},
      {"measurement": "viability, T/C", "setting": "second compound 0.000949 µM, first compound 0.003 µM", "result": 84.4, "unit": "%"},
      {"measurement": "viability, T/C", "setting": "second compound 0.000949 µM, first compound 0.00949 µM", "result": 56, "unit": "%"},
      {"measurement": "viability, T/C", "setting": "second compound 0.000949 µM, first compound 0.03 µM", "result": 27.5, "unit": "%"},
      {"measurement": "viability, T/C", "setting": "second compound 0.000949 µM, first compound 0.0949 µM", "result": 12.2, "unit": "%"},
      {"measurement": "viability, T/C", "setting": "second compound 0.000949 µM, first compound 0.3 µM", "result": 5.05, "unit": "%"},
      {"measurement": "viability, T/C", "setting": "second compound 0.003 µM, first compound 0.000949 µM", "result": 92.2, "unit": "%"},
      {"measurement": "viability, T/C", "setting": "second compound 0.003 µM, first compound 0.003 µM", "result": 84.3, "unit": "%"},
      {"measurement": "viability, T/C", "setting": "second compound 0.003 µM, first compound 0.00949 µM", "result": 43, "unit": "%"},
      {"measurement": "viability, T/C", "setting": "second compound 0.003 µM, first compound 0.03 µM", "result": 25.8, "unit": "%"},
      {"measurement": "viability, T/C", "setting": "second compound 0.003 µM, first compound 0.0949 µM", "result": 10.7, "unit": "%"},
      {"measurement": "viability, T/C", "setting": "second compound 0.003 µM, first compound 0.3 µM", "result": 7.84, "unit": "%"},
      {"measurement": "viability, T/C", "setting": "second compound 0.00949 µM, first compound 0.000949 µM", "result": 89.5, "unit": "%"},
      {"measurement": "viability, T/C", "setting": "second compound 0.00949 µM, first compound 0.003 µM", "result": 96.3, "unit": "%"},
      {"measurement": "viability, T/C", "setting": "second compound 0.00949 µM, first compound 0.00949 µM", "result": 63.1, "unit": "%"},
      {"measurement": "viability, T/C", "setting": "second compound 0.00949 µM, first compound 0.03 µM", "result": 27.6, "unit": "%"},
      {"measurement": "viability, T/C", "setting": "second compound 0.00949 µM, first compound 0.0949 µM", "result": 10.5, "unit": "%"},
      {"measurement": "viability, T/C", "setting": "second compound 0.00949 µM, first compound 0.3 µM", "result": 7.04, "unit": "%"},
      {"measurement": "viability, T/C", "setting": "second compound 0.03 µM, first compound 0.000949 µM", "result": 96.3, "unit": "%"},
      {"measurement": "viability, T/C", "setting": "second compound 0.03 µM, first compound 0.003 µM", "result": 94.1, "unit": "%"},
      {"measurement": "viability, T/C", "setting": "second compound 0.03 µM, first compound 0.00949 µM", "result": 52.5, "unit": "%"},
      {"measurement": "viability, T/C", "setting": "second compound 0.03 µM, first compound 0.03 µM", "result": 29.2, "unit": "%"},
      {"measurement": "viability, T/C", "setting": "second compound 0.03 µM, first compound 0.0949 µM", "result": 10.9, "unit": "%"},
      {"measurement": "viability, T/C", "setting": "second compound 0.03 µM, first compound 0.3 µM", "result": 4.84, "unit": "%"},
      {"measurement": "viability, T/C", "setting": "second compound 0.0949 µM, first compound 0.000949 µM", "result": 91.5, "unit": "%"},
      {"measurement": "viability, T/C", "setting": "second compound 0.0949 µM, first compound 0.003 µM", "result": 67.8, "unit": "%"},
      {"measurement": "viability, T/C", "setting": "second compound 0.0949 µM, first compound 0.00949 µM", "result": 43.4, "unit": "%"},
      {"measurement": "viability, T/C", "setting": "second compound 0.0949 µM, first compound 0.03 µM", "result": 19.7, "unit": "%"},
      {"measurement": "viability, T/C", "setting": "second compound 0.0949 µM, first compound 0.0949 µM", "result": 5.98, "unit": "%"},
      {"measurement": "viability, T/C", "setting": "second compound 0.0949 µM, first compound 0.3 µM", "result": 3.35, "unit": "%"},
      {"measurement": "viability, T/C", "setting": "second compound 0.3 µM, first compound 0.000949 µM", "result": 68.7, "unit": "%"},
      {"measurement": "viability, T/C", "setting": "second compound 0.3 µM, first compound 0.003 µM", "result": 64.1, "unit": "%"},
      {"measurement": "viability, T/C", "setting": "second compound 0.3 µM, first compound 0.00949 µM", "result": 45.9, "unit": "%"},
      {"measurement": "viability, T/C", "setting": "second compound 0.3 µM, first compound 0.03 µM", "result": 10.6, "unit": "%"},
      {"measurement": "viability, T/C", "setting": "second compound 0.3 µM, first compound 0.0949 µM", "result": 4.63, "unit": "%"},
      {"measurement": "viability, T/C", "setting": "second compound 0.3 µM, first compound 0.3 µM", "result": 2.53, "unit": "%"}
    ]},
    {"smiles": "Nc1ccn(C2OC(CO)C(O)C2(F)F)c(=O)n1", "note": "(centres undefined) + C#Cc1c(F)ccc2cc(O)cc(-c3ncc4c(N5CC6CCC(C5)N6)nc(OCC56CCCN5CC(F)C6)nc4c3F)c12", "values": [
      {"measurement": "IC50", "setting": "second compound 0.0316 µM", "result": 17.3, "unit": "nM"},
      {"measurement": "IC50", "setting": "second compound 0.1 µM", "result": 16.4, "unit": "nM"},
      {"measurement": "IC50", "setting": "second compound 0.316 µM", "result": 14.2, "unit": "nM"},
      {"measurement": "IC50", "setting": "second compound 1 µM", "result": 18.2, "unit": "nM"},
      {"measurement": "IC50", "setting": "second compound 3.16 µM", "result": 15.3, "unit": "nM"},
      {"measurement": "IC50", "setting": "second compound 10 µM", "result": 15.3, "unit": "nM"},
      {"measurement": "viability, T/C", "setting": "second compound 0.0316 µM, first compound 0.00316 µM", "result": 84, "unit": "%"},
      {"measurement": "viability, T/C", "setting": "second compound 0.0316 µM, first compound 0.01 µM", "result": 80.9, "unit": "%"},
      {"measurement": "viability, T/C", "setting": "second compound 0.0316 µM, first compound 0.0316 µM", "result": 15.7, "unit": "%"},
      {"measurement": "viability, T/C", "setting": "second compound 0.0316 µM, first compound 0.1 µM", "result": 8.52, "unit": "%"},
      {"measurement": "viability, T/C", "setting": "second compound 0.0316 µM, first compound 0.316 µM", "result": 8.6, "unit": "%"},
      {"measurement": "viability, T/C", "setting": "second compound 0.0316 µM, first compound 1 µM", "result": 8.88, "unit": "%"},
      {"measurement": "viability, T/C", "setting": "second compound 0.1 µM, first compound 0.00316 µM", "result": 87.7, "unit": "%"},
      {"measurement": "viability, T/C", "setting": "second compound 0.1 µM, first compound 0.01 µM", "result": 76.1, "unit": "%"},
      {"measurement": "viability, T/C", "setting": "second compound 0.1 µM, first compound 0.0316 µM", "result": 15.6, "unit": "%"},
      {"measurement": "viability, T/C", "setting": "second compound 0.1 µM, first compound 0.1 µM", "result": 8.78, "unit": "%"},
      {"measurement": "viability, T/C", "setting": "second compound 0.1 µM, first compound 0.316 µM", "result": 9.24, "unit": "%"},
      {"measurement": "viability, T/C", "setting": "second compound 0.1 µM, first compound 1 µM", "result": 9.6, "unit": "%"},
      {"measurement": "viability, T/C", "setting": "second compound 0.316 µM, first compound 0.00316 µM", "result": 80.7, "unit": "%"},
      {"measurement": "viability, T/C", "setting": "second compound 0.316 µM, first compound 0.01 µM", "result": 66.1, "unit": "%"},
      {"measurement": "viability, T/C", "setting": "second compound 0.316 µM, first compound 0.0316 µM", "result": 13.2, "unit": "%"},
      {"measurement": "viability, T/C", "setting": "second compound 0.316 µM, first compound 0.1 µM", "result": 7.37, "unit": "%"},
      {"measurement": "viability, T/C", "setting": "second compound 0.316 µM, first compound 0.316 µM", "result": 11.3, "unit": "%"},
      {"measurement": "viability, T/C", "setting": "second compound 0.316 µM, first compound 1 µM", "result": 10.4, "unit": "%"},
      {"measurement": "viability, T/C", "setting": "second compound 1 µM, first compound 0.00316 µM", "result": 94.8, "unit": "%"},
      {"measurement": "viability, T/C", "setting": "second compound 1 µM, first compound 0.01 µM", "result": 84.9, "unit": "%"},
      {"measurement": "viability, T/C", "setting": "second compound 1 µM, first compound 0.0316 µM", "result": 17.8, "unit": "%"},
      {"measurement": "viability, T/C", "setting": "second compound 1 µM, first compound 0.1 µM", "result": 7.27, "unit": "%"},
      {"measurement": "viability, T/C", "setting": "second compound 1 µM, first compound 0.316 µM", "result": 10.2, "unit": "%"},
      {"measurement": "viability, T/C", "setting": "second compound 1 µM, first compound 1 µM", "result": 9.53, "unit": "%"},
      {"measurement": "viability, T/C", "setting": "second compound 3.16 µM, first compound 0.00316 µM", "result": 82.5, "unit": "%"},
      {"measurement": "viability, T/C", "setting": "second compound 3.16 µM, first compound 0.01 µM", "result": 69.7, "unit": "%"},
      {"measurement": "viability, T/C", "setting": "second compound 3.16 µM, first compound 0.0316 µM", "result": 16.5, "unit": "%"},
      {"measurement": "viability, T/C", "setting": "second compound 3.16 µM, first compound 0.1 µM", "result": 10.8, "unit": "%"},
      {"measurement": "viability, T/C", "setting": "second compound 3.16 µM, first compound 0.316 µM", "result": 10.5, "unit": "%"},
      {"measurement": "viability, T/C", "setting": "second compound 3.16 µM, first compound 1 µM", "result": 10.3, "unit": "%"},
      {"measurement": "viability, T/C", "setting": "second compound 10 µM, first compound 0.00316 µM", "result": 92.4, "unit": "%"},
      {"measurement": "viability, T/C", "setting": "second compound 10 µM, first compound 0.01 µM", "result": 71.2, "unit": "%"},
      {"measurement": "viability, T/C", "setting": "second compound 10 µM, first compound 0.0316 µM", "result": 14.2, "unit": "%"},
      {"measurement": "viability, T/C", "setting": "second compound 10 µM, first compound 0.1 µM", "result": 11.5, "unit": "%"},
      {"measurement": "viability, T/C", "setting": "second compound 10 µM, first compound 0.316 µM", "result": 10.9, "unit": "%"},
      {"measurement": "viability, T/C", "setting": "second compound 10 µM, first compound 1 µM", "result": 9.84, "unit": "%"}
    ]}
  ]
}
